Test results published in patent US6472389B1, “Pyrrolo[1,2-b] pyridazine derivatives having sPLA2 inhibitory effect” (Shionogi & Co., Ltd., priority 1998, dated 2002).

Assays:
[1] = molecular target: T1, recombinant human secretory phospholipase A2 (Homo sapiens, UniProt P14555); assay: Inhibition test of human secretory phospholipase A2 (chromogenic assay, 96 well microtiterplate); assay type: biochemical; conditions: sPLA2 50 ng/well, 40° C., 30 minutes, OD 405 nm, substrate 1,2-bis(heptanoylthio)-1,2-dideoxy-sn-glycero-3-phospholylcholine
T1 sequence (P14555 21-144): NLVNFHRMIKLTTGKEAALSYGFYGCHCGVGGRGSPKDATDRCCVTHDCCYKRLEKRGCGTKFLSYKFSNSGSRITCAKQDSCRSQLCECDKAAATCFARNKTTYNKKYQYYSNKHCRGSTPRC
From the text: Inhibition Test of Human Secretory Phospholipase A2
In order to identify and evaluate an inhibitor of recombinant human secretory phospholipase A2, the following chromogenic assay is utilized. The assay herein has been applied for high volume screening wherein 96 well microtiterplate is used. A general explanation for such assay is described in “Analysis of Human Synovial Fluid Phospholipase A2 on Short Chain Phosphatidylcholine-Mixed Micelles: Development of a Spectrophotometric Assay Suitable for a Micortiterplate Reader” (Analytical Biochemistry, 204, pp 190-197, 1992 by Laure. J. Reynolds. Lori L. Hughes and Edward A. Dennis: the disclosure of which is incorporated herein for reference.
Bovine Serum Albumin (fatty acid free) (1 g/L) (Sigma A-7030)
pH 7.5 (adjusted with NaOH)
pH 4.5 (adjusted with acetic acid)
1 mg of sPLA2 is dissolved in 1 ml of an enzyme buffer. Thereafter, the solution is maintained at 4° C.
In the assay, 5 μl of the solution is diluted with 1995 μl of the reaction buffer to be used.
198 mg of 5,5′-dithiobis-2-[…] (manufactured by Wako Pure Chemicals) is dissolved in 100 ml of H2O
100 mg of racemic 1,2-bis(heptanoylthio)-1,2-dideoxy-sn-glycero-3-phospholylcholine is dissolved in 1 ml of chloroform.
624.9 mg of Triton-X 100 is dissolved in the reaction buffer.
Enzyme Reaction: for 1 plate of Microtiterplate
1) 0.106 ml of the substrate solution is put in a centrifugal tube, and nitrogen gas is jetted to remove the solvent. 0.54 ml of Triton-X 100 is added thereto, the mixture is stirred, thereafter it is sonified in a bath type sonification to dissolve. To the resulting product are added 17.8 m1l of the reaction buffer and 0.46 ml of DTNB, and 0.18 ml each of the admixture is poured to wells of the 96 well microtiterplate.
2) 10 μl of a test compound (or solvent blank) are added in accordance with alignment of plates which has been previously set.
3) Incubation is effected at 40° C. for 15 minutes.
4) 20 μl of an enzyme solution (sPLA2) which has been previously diluted (50 ng/well) are added to start reaction (40° C., 30 minutes).
5) Changes in absorbancy for 30 minutes are measured by a plate reader, and inhibition activity was calculated (OD: 405 nm).
6) IC50 was determined by plotting log concentration with respect to inhibition values within 10% to 90% inhibiting range.

Row | SMILES | IC50 [1] [µM] | melting point
1 | CCc1c(C(=O)C(N)=O)c2c(OCC(=O)OC)ccnn2c1Cc1ccccc1 [Compound I-1, Methyl (5-aminooxalyl-7-benzyl-6-ethylpyrrolo[1,2-b]pyridazine-4-yloxy)acetate] | 0.248 | 210 to 212 °C
2 | CCc1c(C(=O)C(N)=O)c2c(OCC(=O)OC)cc(C)nn2c1Cc1ccccc1 [Compound I-4, Methyl (5-aminooxalyl-7-benzyl-6-ethyl-2-methylpyrrolo[1,2-b]pyridazine-4-yloxy)acetate] | 0.15 | 225 to 226 °C
3 | CCc1c(C(=O)C(N)=O)c2c(OCC(=O)OC)cc(COc3ccccc3)nn2c1Cc1ccccc1 [Compound I-6, Methyl (5-aminooxalyl-7-benzyl-6-ethyl-2-phenoxymethylpyrrolo[1,2-b]pyridazine-4-yloxy)acetate] | 0.238 | 185 to 186 °C
4 | CCc1c(C(=O)C(N)=O)c2c(OCC(=O)OC)cc(COc3ccc(F)cc3)nn2c1Cc1ccccc1 [Compound I-7] | 0.223 | 178 to 179 °C
5 | CCc1cc(OCC(=O)OC)c2c(C(=O)C(N)=O)c(CC)c(Cc3ccccc3)n2n1 [Compound I-8] | 0.184 | 183 to 185 °C
6 | CCCc1cc(OCC(=O)OC)c2c(C(=O)C(N)=O)c(CC)c(Cc3ccccc3)n2n1 [Compound I-9] | 0.165 | 204 to 206 °C
7 | CCc1c(C(=O)C(N)=O)c2c(OCC(=O)OC)cc(C(C)C)nn2c1Cc1ccccc1 [Compound I-10] | 0.296 | 174 to 175 °C
8 | CCc1c(C(=O)C(N)=O)c2c(OCC(=O)OC)cc(C)nn2c1Cc1ccc(F)cc1 [Compound I-12] | 0.745 | 252 to 254 °C
9 | CCc1c(C(=O)C(N)=O)c2c(OCC(=O)OC)cc(-c3ccccc3)nn2c1Cc1ccc(F)cc1 [Compound I-13] | 0.238 | 253 to 255 °C
10 | CCc1c(C(=O)C(N)=O)c2c(OCC(=O)OC)cc(C(F)(F)F)nn2c1Cc1ccc(F)cc1 [Compound I-14] | 0.883 | 200 to 202 °C
11 | CCc1c(C(=O)C(N)=O)c2c(OCC(=O)OC)cc(-c3ccccc3)nn2c1Cc1ccccc1F [Compound I-15] | 0.097 | 244 to 246 °C
12 | COC(=O)COc1cc(C)nn2c(Cc3ccccc3)c(C)c(C(=O)C(N)=O)c12 [Compound I-26] | 0.177 | 163 to 165 °C
13 | CCc1c(C(=O)C(N)=O)c2c(OCC(=O)OC)cc(CSc3ccccc3)nn2c1Cc1ccccc1 [Compound I-27] | 0.126 | 189 to 192 °C
14 | CCc1c(C(=O)C(N)=O)c2c(OCC(=O)OCc3ccccc3)cc(CN3CCCC3)nn2c1Cc1ccccc1 [Compound I-29] | 1.52 | 185 to 186 °C
15 | CCc1c(C(=O)C(N)=O)c2c(OCC(=O)OCc3ccccc3)cc(CN3CCOCC3)nn2c1Cc1ccccc1 [Compound I-30] | 4.52 | 183 to 184 °C
16 | CCc1c(C(=O)C(N)=O)c2c(OCC(=O)OCc3ccccc3)cc(CN3CCN(C)CC3)nn2c1Cc1ccccc1 [Compound I-31] | 15.6 | 202 to 203 °C
17 | CCc1c(C(=O)C(N)=O)c2c(OCC(=O)OC)cc(-c3ccc(F)cc3)nn2c1Cc1ccc(F)cc1 [Compound I-32] | 0.239 | 274 to 276 °C (dec.)
18 | CCc1c(C(=O)C(N)=O)c2c(OCC(=O)OC)cc(C)nn2c1Cc1ccccc1-c1ccccc1 [Compound I-35] | 0.111 | 187 to 189 °C
19 | CCc1c(C(=O)C(N)=O)c2c(OCC(=O)OC)cc(C)nn2c1Cc1cccc(Oc2ccccc2)c1 [Compound I-36] | 0.102 | 201 to 202 °C
20 | CCc1c(C(=O)C(N)=O)c2c(OCC(=O)OC)cc(C3CCCCC3)nn2c1Cc1ccccc1 [Compound I-37] | 0.212 | 207 to 209 °C (dec.)
21 | CCc1c(C(=O)C(N)=O)c2c(OCC(=O)OC)cc(C3CCCC3)nn2c1Cc1ccccc1 [Compound I-38] | 0.227 | 160 to 162 °C (dec.)
22 | CCc1c(C(=O)C(N)=O)c2c(OCC(=O)OC)cc(-c3ccc4c(c3)OCO4)nn2c1Cc1ccccc1 [Compound I-39] | 0.079 | 245 to 247 °C (dec.)
23 | CCc1cc(OCC(=O)OC)c2c(C(=O)C(N)=O)c(C)c(Cc3ccccc3)n2n1 [Compound I-40] | 0.099 | 194 to 196 °C
24 | COC(=O)COc1cc(CSC)nn2c(Cc3ccccc3)c(C)c(C(=O)C(N)=O)c12 [Compound I-43] | 0.154 | 210 to 211 °C
25 | COCc1cc(OCC(=O)OC)c2c(C(=O)C(N)=O)c(C)c(Cc3ccccc3)n2n1 [Compound I-44] | 0.315 | 228 to 229 °C (dec.)

Stronger by IC50 [1], values ahead:

Row | IC50 [1] [µM] | melting point | SMILES
26 | 0.072 | 249 to 253 °C (dec.) | CCc1c(C(=O)C(N)=O)c2c(OCC(=O)OC)cc(-c3ccc(F)cc3)nn2c1Cc1ccccc1 [Compound I-33]
27 | 0.067 | 236 to 239 °C | CCc1c(C(=O)C(N)=O)c2c(OCC(=O)OC)cc(-c3ccccc3)nn2c1Cc1ccccc1 [Compound I-11]
28 | 0.064 | 210 to 211 °C | CCCc1cc(OCC(=O)OC)c2c(C(=O)C(N)=O)c(C)c(Cc3ccccc3)n2n1 [Compound I-41]
29 | 0.058 | 215 to 217 °C (dec.) | CCc1c(C(=O)C(N)=O)c2c(OCC(=O)OC)cc(-c3ccc(OC)cc3)nn2c1Cc1ccccc1 [Compound I-34]
30 | 0.026 | 204 to 206 °C | COC(=O)COc1cc(Cc2ccccc2)nn2c(Cc3ccccc3)c(C)c(C(=O)C(N)=O)c12 [Compound I-42]
31 | 0.022 | 238 to 240 °C | CCc1c(C(=O)C(N)=O)c2c(OCC(=O)O)cc(C)nn2c1Cc1ccc(F)cc1 [Compound I-22]
32 | 0.021 | 248 to 250 °C | CCc1c(C(=O)C(N)=O)c2c(OCC(=O)O)cc(C(F)(F)F)nn2c1Cc1ccc(F)cc1 [Compound I-24]
33 | 0.019 | 234 to 236 °C (dec.) | CCc1c(C(=O)C(N)=O)c2c(OCC(=O)O)cc(C(C)C)nn2c1Cc1ccccc1 [Compound I-20]
34 | 0.013 | – | CCc1c(C(=O)C(N)=O)c2c(OCC(=O)O)ccnn2c1Cc1ccccc1 [Compound I-3, Sodium (5-aminooxalyl-7-benzyl-6-ethylpyrrolo[1,2-b]pyridazine-4-yloxy)acetate]
35 | 0.012 | 271 to 272 °C (dec.) | Cc1cc(OCC(=O)O)c2c(C(=O)C(N)=O)c(C)c(Cc3ccccc3)n2n1 [Compound I-16]
36 | 0.011 | – | CCc1c(C(=O)C(N)=O)c2c(OCC(=O)O)cc(C)nn2c1Cc1ccccc1 [Compound I-5, (5-aminooxalyl-7-benzyl-6-ethyl-2-methylpyrrolo[1,2-b]pyridazine-4-yloxy)acetic acid]
37 | 0.01 | 223 to 225 °C (dec.) | CCc1cc(OCC(=O)O)c2c(C(=O)C(N)=O)c(CC)c(Cc3ccccc3)n2n1 [Compound I-18]
38 | 0.01 | 231 to 233 °C (dec.) | CCCc1cc(OCC(=O)O)c2c(C(=O)C(N)=O)c(CC)c(Cc3ccccc3)n2n1 [Compound I-19]
39 | 0.009 | – | CCc1c(C(=O)C(N)=O)c2c(OCC(=O)O)ccnn2c1Cc1ccccc1 [Compound I-2, (5-aminooxalyl-7-benzyl-6-ethylpyrrolo[1,2-b]pyridazine-4-yloxy)acetic acid]
40 | 0.007 | 253 to 254 °C (dec.) | Cc1c(C(=O)C(N)=O)c2c(OCC(=O)O)cc(-c3ccccc3)nn2c1Cc1ccccc1 [Compound I-17]
41 | 0.007 | 250 to 252 °C | CCc1c(C(=O)C(N)=O)c2c(OCC(=O)O)cc(-c3ccccc3)nn2c1Cc1ccc(F)cc1 [Compound I-23]
42 | 0.006 | 244 to 246 °C (dec.) | CCc1c(C(=O)C(N)=O)c2c(OCC(=O)O)cc(-c3ccccc3)nn2c1Cc1ccccc1 [Compound I-21]
43 | 0.006 | 252 to 254 °C | CCc1c(C(=O)C(N)=O)c2c(OCC(=O)O)cc(-c3ccccc3)nn2c1Cc1ccccc1F [Compound I-25]
